Each structure is given as a SMILES string. Peptide text beside a SMILES is read from it. * marks the point of attachment. Tyr(Nα,Nα-Bn2) = O=C([C@H](Cc1ccc(O)cc1)N(Cc1ccccc1)Cc1ccccc1)*; Tyr(Nα,Nα-allyl2) = C=CCN(CC=C)[C@@H](Cc1ccc(O)cc1)C(=O)*; X4 = O=C([C@H](Cc1ccc(O)cc1)N(CCc1ccccc1)CCc1ccccc1)*; X5 = CCCCCCCCN(CCCCCCCC)[C@@H](Cc1ccc(O)cc1)C(=O)*; X3 = O=C([C@H](Cc1ccc(O)cc1)N(CC1CC1)CC1CC1)*; X1 = CCCCCN(CCCCC)[C@@H](Cc1ccc(O)cc1)C(=O)*; X2 = CCCN(CCC)[C@@H](Cc1ccc(O)cc1)C(=O)*

The species named for one assay is Cavia porcellus. As to the kind of experiment: Agonistic activity was measured on the electrically stimulated longitudinal muscle of the guinea pig ileum (GPI) at 1 uM concentration. As to conditions: Muscle tissue.
The species entered for a further assay is Mus musculus. As to the kind of experiment: Agonistic activity was measured on the electrically stimulated longitudinal muscle of the mouse vas deferens (MVD) at 1 uM concentration. As to conditions: Muscle tissue.

Take `CCCCCN(CCCCC)[C@@H](Cc1ccc(O)cc1)C(=O)NCC(=O)NCC(=O)N[C@@H](Cc1ccccc1)C(=O)N[C@@H](CC(C)C)C(=O)O` (X1-GGFL-OH): the inhibition at 1 µM in the assay filed under Cavia porcellus was found to be 15.9%; in the assay filed under Mus musculus, 20.4%.

Turning to `CCCN(CCC)[C@@H](Cc1ccc(O)cc1)C(=O)NCC(=O)NCC(=O)N[C@@H](Cc1ccccc1)C(=O)N[C@@H](CC(C)C)C(=O)O` (X2-GGFL-OH), the inhibition at 1 µM in the assay listed under Cavia porcellus was -2.6%; in the assay listed under Mus musculus, 11.9%.

`CC(C)C[C@H](NC(=O)[C@H](Cc1ccccc1)NC(=O)CNC(=O)CNC(=O)[C@H](Cc1ccc(O)cc1)N(CC1CC1)CC1CC1)C(=O)O` (X3-GGFL-OH): the inhibition at 1 µM in the assay listed under Cavia porcellus turned out to be 2.2%; in the assay filed under Mus musculus, 27.3%.

With `CC(C)C[C@H](NC(=O)[C@H](Cc1ccccc1)NC(=O)CNC(=O)CNC(=O)[C@H](Cc1ccc(O)cc1)N(CCc1ccccc1)CCc1ccccc1)C(=O)O` (X4-GGFL-OH), the inhibition at 1 µM in the assay filed under Cavia porcellus was found to be 14.7%; in the assay filed under Mus musculus, 60.5%.

In the case of `CCCCCCCCN(CCCCCCCC)[C@@H](Cc1ccc(O)cc1)C(=O)NCC(=O)NCC(=O)N[C@@H](Cc1ccccc1)C(=O)N[C@@H](CC(C)C)C(=O)O` (X5-GGFL-OH), the inhibition at 1 µM in the assay filed under Cavia porcellus is 8.1%; in the assay filed under Mus musculus, 39.2%.

Take `CC(C)C[C@H](NC(=O)[C@H](Cc1ccccc1)NC(=O)CNC(=O)CNC(=O)[C@H](Cc1ccc(O)cc1)N(Cc1ccccc1)Cc1ccccc1)C(=O)O` ({Tyr(Nα,Nα-Bn2)}-GGFL-OH): the inhibition at 1 µM in the assay filed under Cavia porcellus worked out at 1.9%; in the assay filed under Mus musculus, 11.4%.

On to `C=CCN(CC=C)[C@@H](Cc1ccc(O)cc1)C(=O)NCC(=O)NCC(=O)N[C@@H](Cc1ccccc1)C(=O)N[C@@H](CC(C)C)C(=O)O` ({Tyr(Nα,Nα-allyl2)}-GGFL-OH), for which the results for the inhibition at 1 µM in the assay listed under Cavia porcellus and in the assay filed under Mus musculus were -6.7% and 10%, respectively.

By inhibition is commonly meant the relative decrease from the control value, in per cent.

The values above are taken from ChEMBL document CHEMBL1123869, “N,N-dialkylated leucine enkephalins as potential delta opioid receptor antagonists” (1987).
